Structures can show the parent of a compound that is named as a salt.
How the values were obtained:
Type in all cases: in vivo, human
[1] = test system: non-small cell lung cancer squamous cell carcinoma; assay: Case report, non-small cell lung cancer squamous cell carcinoma (Example 8)
Method: EML4-ALK fusion gene had no mutation, EGFR gene had no mutation by gene detection.
From Mar. 26, 2013 to Jun. 5, 2013, the patient was treated with cisplatin and gemcitabine chemotherapy for 4 cycles, and the best efficacy was SD. After the end of the chemotherapy, they were treated with the local radiotherapy of the lung for 1 cycle, during which the adverse reactions was light. From Sep. 9, 2013 to Oct. 6, 2013, the patient was treated with cisplatin and gemcitabine chemotherapy for 2 cycles. December 2013, disease was found progression by review of CT. From Mar. 24, 2014, the patient was treated with docetaxel chemotherapy for 1 cycle. […] On Dec. […] Double lungs had multiple pulmonary bullae, which changed little than before; 3. Double lungs had inflammation, the scope of which was smaller than before; 4. Left clavicle, mediastinal and right hilar had multiple lymph nodes, which were slightly larger than before. From Jan. 7, 2015 to Jan. […] On Mar. […] On Mar. 6, 2015, the patient was treated with oral Tiggio treatment. […] On Jun.
From Jun. 4, 2015, the patient received dihydrochloride of compound I capsule treatment that one cycle plan was 12 mg dose once, q.d., and continuous medication for 2 weeks, and then suspended medication for 1 week. On Jun.

[2] = test system: patients with non-small cell lung cancer; assay: Randomized, double-blind, placebo-controlled trial in non-small cell lung cancer patients (Example 3); settings: for progression-free survival (PFS, month) Mean / progression-free survival (PFS, month) P25 / progression-free survival (PFS, month) P50 / progression-free survival (PFS, month) P75: 12 mg once daily, two weeks on, one week rest
Description: (§1) In this paper, progression-free survival P25 refers to the time that 75% of the patients who participated in the disease had no progress in disease; Progressive survival P50 refers to the time that 50% of the patients who participated in the disease had no progress in disease; Progression-free survival P75 refers to the time that 25% of the patients who participated in the disease had no progress in disease; the progression-free survival was the mean value of the progression-free survival of the patient who participated in the results of statistics.
Randomized, double-blind, placebo-controlled trials were performed in patients with measurable lesions which were pathologically diagnosedas non-small cell lung cancer, who had received second-line or higher-line therapy, or those who were intolerable to aforementioned treatment, and who had been treated with other cytotoxic drugs, radiotherapy or surgery for more than four weeks. In this study, efficacy of the capsules of dihydrochloride of compound I was initially evaluated against placebo in the treatment of patients with non-small cell lung cancer. The primary outcome of the evaluation was progression-free survival (PFS). 117 patients with non-small cell lung cancer enrolled in this study, whose age was between 18-70. Among them, 57 patients were randomized into placebo group and 60 patients randomized into dihydrochloride of compound I group.
(§2) The above-mentioned eligible non-small cell lung cancer patients were treated with dihydrochloride of compound I/placebo for clinical trials. They were administered 12 mg/0 mg of compound I/placebo individually once daily for consecutive two weeks followed by one-week rest from administration, namely the period of a cycle regimen was three weeks (21 days), those who were ineligible for continuous therapy or whose disease were progressive disease (PD) according to the reassessment were excluded from the medication.
(§3) Results: A total of 117 patients with non-small cell lung cancer were enrolled in the study, including 57 patients randomized into placebo group and 60 patients randomized into dihydrochloride of compound I group. 43 patients in placebo group and 30 patients in dihydrochloride of compound I group were involved in data statistics, the remaining patients who dropped out or excluded from the study or those were still in follow-up were not included in the statistics.

[3] = test system: patients with lung adenocarcinoma; assay: Randomized, double-blind, placebo-controlled trial in lung adenocarcinoma patients (Example 4)
Description: as §1
Randomized, double-blind, placebo-controlled trials were performed in patients with measurable lesions which were pathologically diagnosedas lung adenocarcinoma, who had received second-line or higher-line therapy, or those who were intolerable to the aforementioned treatment, and who had been treated with other cytotoxic drugs, radiotherapy or surgery for more than four weeks. In this study, efficacy of the capsules of dihydrochloride of compound I was initially evaluated against placebo in the treatment of patients with lung adenocarcinoma. The primary outcome of the evaluation was progression-free survival (PFS). 104 patients with lung adenocarcinoma enrolled in this study, whose age was between 18-70. Among them, 50 patients were randomized into placebo group and 54 patients randomized into dihydrochloride of compound I group.
as §2, with “eligible” for “eligible non-small cell”, “adenocarcinoma” for “cancer”
as §3, with “104” for “117”, “with” for “with non-small cell”, “adenocarcinoma” for “cancer”, “50” for “57”, “54” for “60”, “37” for “43”

[4] = test system: right lower lung adenocarcinoma (T4N2M1b, stage IV); assay: Case report, stage IV lung adenocarcinoma (Example 5); settings: for sum of the longest diameter of the two measurable lesions: baseline 45.7 mm
Method: 3, 2013, the capsule of dihydrochloride of compound I was taken orally at 12 mg once daily with repeated treatment cycles (treatment given for consecutive two weeks followed by one week of rest is one treatment cycle). Treatment toxicities were assessed at 4-week follow-up, and the number of blood cells and blood chemistry were analyzed every two or three weeks, treatment response was assessed based on CT scan as well.

[5] = test system: non-small cell lung cancer; assay: Case report, non-small cell lung cancer, EGFR gene no mutation (Example 7)
Description: From Jun. […] From Oct. […] On Jan. […] From Jan. […] On Jul.

[6] = test system: left upper lobe lung adenocarcinoma (T4N3M1a, stage IV); assay: Case report, stage IV lung adenocarcinoma (Example 6); settings: for sum of the diameter of two measurable target lesions: baseline 58 mm
Method: A retired person, smoking for 30 years (20 cigarettes/day), underwent thyroid adenoma resection 10 years ago. […] From Aug. 1, 2013 to Sep. […] From Dec. 26, 2013 to Jan. […] On Jan. […] On Feb.
From Feb. 28, 2014, the capsule of dihydrochloride of compound I was taken orally at 12 mg once daily with repeated treatment cycles (treatment given for consecutive two weeks followed by one week of rest is one treatment cycle).

[7] = lung adenocarcinoma, 12 mg once daily, two weeks on, one week rest
[8] = after ten treatment cycles (210 days)
[9] = after three-week administration

CC(=O)O[C@@]12CO[C@@H]1C[C@H](O)[C@@]1(C)C(=O)[C@H](O)C3=C(C)[C@@H](OC(=O)[C@H](O)[C@@H](NC(=O)OC(C)(C)C)c4ccccc4)C[C@@](O)([C@@H](OC(=O)c4ccccc4)[C@H]21)C3(C)C [docetaxel, reference compound]
adverse reactions after prior chemotherapy (medical history) ([1]; in vivo): bone marrow suppression, oral infection, pneumonia appeared

COc1cc2c(Oc3ccc4[nH]c(C)cc4c3F)ccnc2cc1OCC1(N)CC1 [dihydrochloride of compound I, 1-[[[4-(4-fluoro-2-methyl-1H-indol-5-yl)oxy-6-methoxyquinolin-7-yl]oxy]methyl]cyclopropylamine dihydrochloride]
progression-free survival (PFS, month) Mean ([2]; age > 60): 5.84 month
progression-free survival (PFS, month) P25 ([2]; age > 60): 2.83 month
progression-free survival (PFS, month) P50 ([2]; age > 60): 6.40 month
progression-free survival (PFS, month) P75 ([2]; age > 60): 8.30 month
progression-free survival (PFS, month) Mean ([2]; age ≤ 60): 4.48 month
progression-free survival (PFS, month) P25 ([2]; age ≤ 60): 2.77 month
progression-free survival (PFS, month) P50 ([2]; age ≤ 60): 4.30 month
progression-free survival (PFS, month) P75 ([2]; age ≤ 60): 6.17 month
effect on progression-free survival versus placebo ([2]; patients with non-small cell lung cancer): significantly prolong progression-free survival
target lesion sum ([1]; Jul. 15, 2015): 63 mm
target lesion sum ([1]; Oct. 16, 2015): 56 mm
target lesion sum ([1]; Sep. 8, 2015): 57 mm
reduction of total target lesions versus baseline ([1]; after 1 cycle (Jun. 25, 2015)): 10 mm
total target lesions ([1]; after 1 cycle (Jun. 25, 2015)): 66 mm
tolerability of adverse reactions ([1]; until application date): could tolerate adverse reactions
progression-free survival (PFS, month) Mean [3, 7]: 4.77 month
progression-free survival (PFS, month) P25 [3, 7]: 2.77 month
progression-free survival (PFS, month) P50 [3, 7]: 4.33 month
progression-free survival (PFS, month) P75 [3, 7]: 6.87 month
effect on progression-free survival versus placebo ([3]; patients with lung adenocarcinoma): significantly prolong progression-free survival
tolerance ([4]; 12 mg once daily orally): well tolerated
reduction of sum of the longest diameter [4, 8]: 43.1%
sum of the longest diameter of the two measurable lesions [4, 8]: 26 mm
reduction of sum of the longest diameter ([4]; after treatment for 6 weeks): 31.22%
sum of the longest diameter of the two measurable lesions ([4]; after treatment for 6 weeks, 12 mg once daily orally): 31.43 mm
blood routine examinations including the number of blood cells ([4]; during treatment): not significantly altered
left temporal lobe nodules, head enhancement CT ([5]; Aug. 20, 2015): slightly smaller than baseline
tolerability of adverse reactions ([5]; until application date): could tolerate adverse reactions
tolerance ([6]; 12 mg once daily orally): generally well tolerated
lesion in anterior segment of left upper lobe lung, diameter ([6]; after 15-week administration): 10 mm
lesion in mediastinal lymph node, diameter ([6]; after 15-week administration): 15 mm
reduction of sum of target lesions ([6]; after 15-week administration): 56.9%
sum of the diameter of two measurable target lesions ([6]; after 15-week administration): 25 mm
lesion in anterior segment of left upper lobe lung, diameter ([6]; after nine-week administration): 10 mm
lesion in mediastinal lymph node, diameter ([6]; after nine-week administration): 16 mm
reduction of sum of target lesions ([6]; after nine-week administration): 55.2%
sum of the diameter of two measurable target lesions ([6]; after nine-week administration): 26 mm
reduction of sum of target lesions [6, 9]: 37.9%
lesion in mediastinal lymph node, diameter ([6]; after three-week administration, baseline 21 mm): 18 mm
lesion in anterior segment of left upper lobe lung, diameter ([6]; after three-week administration, baseline 37 mm): 18 mm
sum of the diameter of two measurable target lesions [6, 9]: 36 mm
blood changes ([6]; during treatment): not significant
heart toxicity ([6]; during treatment): no heart toxicity related to the drug
progression of non-target lesions and new lesions ([6]; during treatment): not observed
response and clinical performance ([6]; given for 279 days, 14th treatment cycle): sustained response against tumor and good clinical performance
lesion in anterior segment of left upper lobe lung, diameter ([6]; six weeks administration): 14 mm
lesion in mediastinal lymph node, diameter ([6]; six weeks administration): 15 mm
reduction of sum of target lesions ([6]; six weeks administration): 50%
sum of the diameter of two measurable target lesions ([6]; six weeks administration): 29 mm
lesion in anterior segment of left upper lobe lung, diameter ([6]; twelve weeks administration): 10 mm
lesion in mediastinal lymph node, diameter ([6]; twelve weeks administration): 16 mm
reduction of sum of target lesions ([6]; twelve weeks administration): 55.2%
sum of the diameter of two measurable target lesions ([6]; twelve weeks administration): 26 mm

gemcitabine/cisplatin [reference compound]
outcome of prior therapy (medical history) ([6]; one treatment cycle each): unsatisfactory
